Results as given in PubChem BioAssay (NCI).
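GI50 marks 50% less growth. TGI marks complete inhibition of growth.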

Experiments:
Experiment in all cases: NCI tumour cell line growth inhibition, 384-well format
[1] = tested on: UACC-62 melanoma
[2] = tested on: ACHN renal
[3] = tested on: COLO 205 colon
[4] = tested on: UACC-257 melanoma
[5] = tested on: 786-0 renal
[6] = tested on: HCC-2998 colon
[7] = tested on: HT29 colon
[8] = tested on: NCI/ADR-RES ovarian
[9] = tested on: SK-OV-3 ovarian
[10] = tested on: OVCAR-8 ovarian
[11] = tested on: SW-620 colon
[12] = tested on: MCF7 breast
[13] = tested on: T-47D breast
[14] = tested on: HOP-92 NSCLC
[15] = tested on: KM12 colon
[16] = tested on: SNB-19 CNS
[17] = tested on: BT-549 breast
[18] = tested on: U251 glioblastoma
[19] = tested on: TK-10 renal
[20] = tested on: MDA-MB-231 breast
[21] = tested on: HL-60(TB) leukemia
[22] = tested on: M14 melanoma
[23] = tested on: LOX IMVI melanoma
[24] = tested on: K-562 leukemia
[25] = tested on: RPMI-8226 leukemia
[26] = tested on: NCI-H322M lung
[27] = tested on: MDA-MB-435 melanoma
[28] = tested on: NCI-H460 NSCLC
[29] = tested on: HS 578T breast
[30] = tested on: SF-268 CNS
[31] = tested on: UO-31 renal
[32] = tested on: SK-MEL-28 melanoma
[33] = tested on: NCI-H23 lung
[34] = tested on: SNB-75 CNS
[35] = tested on: NCI-H522 lung
[36] = tested on: NCI-H226 lung
[37] = tested on: HCT-15 colon
[38] = tested on: IGROV1 ovarian
[39] = tested on: HOP-62 NSCLC
[40] = tested on: SK-MEL-5 melanoma
[41] = tested on: MDA-MB-468 breast
[42] = tested on: OVCAR-5 ovarian
[43] = tested on: CCRF-CEM leukemia
[44] = tested on: MALME-3M melanoma
[45] = tested on: EKVX NSCLC
[46] = tested on: OVCAR-3 ovarian
[47] = tested on: OVCAR-4 ovarian
[48] = tested on: A549 NSCLC
[49] = tested on: A498 renal
[50] = tested on: PC-3 prostate
[51] = tested on: SN12C renal
[52] = tested on: MOLT-4 leukemia
[53] = tested on: SR leukemia
[54] = tested on: SF-295 CNS
[55] = tested on: SF-539 CNS
[56] = tested on: CAKI-1 renal
[57] = tested on: DU-145 prostate
[58] = tested on: RXF 393 renal

Question: `O=C(NCC(F)(F)F)Nc1cccc(-c2cnc3cc(-c4ccc(F)cc4)ccn23)c1` was tested. Which GI50 [1] did it give?
Answer: 559 nM

Question: What about the TGI [1] of the same molecule?
Answer: 12.4 µM

Question: What about the GI50 [2] of the same molecule?
Answer: 2790 nM

Question: And the TGI [2]?
Answer: 12.9 µM

Question: What about the GI50 [3] of the same molecule?
Answer: 451 nM

Question: And the TGI [3]?
Answer: 3.53 µM

Question: And the GI50 [4]?
Answer: 1850 nM

Question: And the TGI [4]?
Answer: 14.6 µM

Question: What about the GI50 [5] of the same molecule?
Answer: 1080 nM

Question: What about the TGI [5] of the same molecule?
Answer: 5.81 µM

Question: And the GI50 [6]?
Answer: 705 nM

Question: And the TGI [6]?
Answer: 9.27 µM

Question: What about the GI50 [7] of the same molecule?
Answer: 367 nM

Question: And the TGI [7]?
Answer: 1570 nM

Question: What about the GI50 [8] of the same molecule?
Answer: 1510 nM

Question: And the TGI [8]?
Answer: 3.73 µM

Question: What about the GI50 [9] of the same molecule?
Answer: 631 nM

Question: What about the TGI [9] of the same molecule?
Answer: 7.87 µM

Question: And the GI50 [10]?
Answer: 2480 nM

Question: What about the TGI [10] of the same molecule?
Answer: 12.1 µM

Question: And the GI50 [11]?
Answer: 433 nM

Question: What about the TGI [11] of the same molecule?
Answer: 10.5 µM

Question: And the GI50 [12]?
Answer: 804 nM

Question: And the TGI [12]?
Answer: 12.5 µM

Question: And the GI50 [13]?
Answer: 862 nM

Question: And the TGI [13]?
Answer: 7.45 µM

Question: And the GI50 [14]?
Answer: 1710 nM

Question: And the TGI [14]?
Answer: 8.88 µM

Question: What about the GI50 [15] of the same molecule?
Answer: 400 nM

Question: And the TGI [15]?
Answer: 11.9 µM

Question: And the GI50 [16]?
Answer: 1460 nM

Question: And the TGI [16]?
Answer: 6.95 µM

Question: What about the GI50 [17] of the same molecule?
Answer: 324 nM

Question: And the TGI [17]?
Answer: 2130 nM

Question: What about the GI50 [18] of the same molecule?
Answer: 1390 nM

Question: What about the TGI [18] of the same molecule?
Answer: 12.2 µM

Question: What about the GI50 [19] of the same molecule?
Answer: 2210 nM

Question: What about the TGI [19] of the same molecule?
Answer: 13.1 µM

Question: And the GI50 [20]?
Answer: 650 nM

Question: And the TGI [20]?
Answer: 19.3 µM

Question: What about the GI50 [21] of the same molecule?
Answer: 321 nM

Question: And the TGI [21]?
Answer: 853 nM

Question: What about the GI50 [22] of the same molecule?
Answer: 569 nM

Question: What about the TGI [22] of the same molecule?
Answer: 5.67 µM

Question: What about the GI50 [23] of the same molecule?
Answer: 741 nM

Question: And the TGI [23]?
Answer: 8.31 µM

Question: What about the GI50 [24] of the same molecule?
Answer: 362 nM

Question: What about the TGI [24] of the same molecule?
Answer: 1200 nM

Question: What about the GI50 [25] of the same molecule?
Answer: 575 nM

Question: And the TGI [25]?
Answer: 1830 nM

Question: What about the GI50 [26] of the same molecule?
Answer: 3.68 µM

Question: And the TGI [26]?
Answer: 21.2 µM

Question: What about the GI50 [27] of the same molecule?
Answer: 210 nM

Question: What about the TGI [27] of the same molecule?
Answer: 457 nM

Question: What about the GI50 [28] of the same molecule?
Answer: 408 nM

Question: And the TGI [28]?
Answer: 10.4 µM

Question: What about the GI50 [29] of the same molecule?
Answer: 655 nM

Question: What about the TGI [29] of the same molecule?
Answer: 2250 nM

Question: What about the GI50 [30] of the same molecule?
Answer: 1810 nM

Question: What about the TGI [30] of the same molecule?
Answer: 9.05 µM

Question: What about the GI50 [31] of the same molecule?
Answer: 4.68 µM

Question: And the TGI [31]?
Answer: 19.5 µM

Question: And the GI50 [32]?
Answer: 2320 nM

Question: And the TGI [32]?
Answer: 17.9 µM

Question: What about the GI50 [33] of the same molecule?
Answer: 1020 nM

Question: And the TGI [33]?
Answer: 3.56 µM

Question: And the GI50 [34]?
Answer: 376 nM

Question: What about the TGI [34] of the same molecule?
Answer: 2090 nM

Question: What about the GI50 [35] of the same molecule?
Answer: 292 nM

Question: And the TGI [35]?
Answer: 899 nM

Question: And the GI50 [36]?
Answer: 1030 nM

Question: What about the TGI [36] of the same molecule?
Answer: 8.57 µM

Question: What about the GI50 [37] of the same molecule?
Answer: 358 nM

Question: And the TGI [37]?
Answer: 1610 nM

Question: What about the GI50 [38] of the same molecule?
Answer: 1400 nM

Question: And the TGI [38]?
Answer: 10.5 µM

Question: And the GI50 [39]?
Answer: 688 nM

Question: And the TGI [39]?
Answer: 11 µM

Question: And the GI50 [40]?
Answer: 444 nM

Question: What about the TGI [40] of the same molecule?
Answer: 9.92 µM

Question: And the GI50 [41]?
Answer: 250 nM

Question: What about the TGI [41] of the same molecule?
Answer: 568 nM

Question: What about the GI50 [42] of the same molecule?
Answer: 4.04 µM

Question: And the TGI [42]?
Answer: 25.5 µM

Question: What about the GI50 [43] of the same molecule?
Answer: 734 nM

Question: And the TGI [43]?
Answer: 2030 nM

Question: What about the GI50 [44] of the same molecule?
Answer: 498 nM

Question: What about the TGI [44] of the same molecule?
Answer: 14.5 µM

Question: And the GI50 [45]?
Answer: 1900 nM

Question: And the TGI [45]?
Answer: 16.8 µM

Question: And the GI50 [46]?
Answer: 484 nM

Question: What about the TGI [46] of the same molecule?
Answer: 2250 nM

Question: What about the GI50 [47] of the same molecule?
Answer: 571 nM

Question: What about the TGI [47] of the same molecule?
Answer: 5.64 µM

Question: And the GI50 [48]?
Answer: 1080 nM

Question: What about the TGI [48] of the same molecule?
Answer: 12.9 µM

Question: And the GI50 [49]?
Answer: 769 nM

Question: What about the TGI [49] of the same molecule?
Answer: 10.3 µM

Question: And the GI50 [50]?
Answer: 2300 nM

Question: What about the TGI [50] of the same molecule?
Answer: 10.8 µM

Question: What about the GI50 [51] of the same molecule?
Answer: 756 nM

Question: And the TGI [51]?
Answer: 4.53 µM

Question: What about the GI50 [52] of the same molecule?
Answer: 219 nM

Question: What about the TGI [52] of the same molecule?
Answer: 391 nM

Question: And the GI50 [53]?
Answer: 148 nM

Question: What about the TGI [53] of the same molecule?
Answer: 309 nM

Question: And the GI50 [54]?
Answer: 1130 nM

Question: And the TGI [54]?
Answer: 4.39 µM

Question: And the GI50 [55]?
Answer: 832 nM

Question: And the TGI [55]?
Answer: 2540 nM

Question: And the GI50 [56]?
Answer: 1110 nM

Question: And the TGI [56]?
Answer: 12.5 µM

Question: And the GI50 [57]?
Answer: 3.13 µM

Question: And the TGI [57]?
Answer: 18.4 µM

Question: What about the GI50 [58] of the same molecule?
Answer: 1490 nM

Question: What about the TGI [58] of the same molecule?
Answer: 7.29 µM
